Counter-ions that a name gives are not always drawn.
Assay: Heating of the active substance at 150° C. for 15 minutes (HPLC, DSC, TGA, HSM, spectroscopic investigations)
Type: physicochemical
Experimental: Physical Stability Studies on the Active Substances and the Excipients Used in the Formulation of the Tablets.
5.0 mg carefully weighed of every excipient/substance was placed in aluminium pans, closed with a suitable press and analyzed by means of DSC (Perkin Elmer 7) under nitrogen flow; the analysis was also carried out on the thermally-treated powders. The operating conditions utilised were the following: initial temperature (Tstart)=50° C.; final temperature (Tend) 250° C.; gradient=10° C./min.
The determination of the weight variations of the active substances and excipients, of the powder mixtures and the powders obtained by crushing the tablets was conducted through TGA 7 of Perkin Elmer, in nitrogen atmosphere, using the same temperatures and the same heating gradients used in the thermal heat treatments.

## COc1ccc([C@@H]2Sc3ccccc3N(CCN(C)C)C(=O)[C@@H]2OC(C)=O)cc1 [Diltiazem hydrochloride]
  physical or chemical modification after heating: did not involve any physical or chemical modification
